In PubChem BioAssay (NCI):
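All cell lines were grown in 96-well plates and treated with compound for 48 hours. TGI marks complete inhibition of growth.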

How the values were obtained:
Assay in all cases: NCI tumour cell line growth inhibition, 48 h
OVCAR-3 ovarian = tested on: OVCAR-3 ovarian
A498 renal = tested on: A498 renal
HS 578T breast = tested on: HS 578T breast
SK-MEL-2 melanoma = tested on: SK-MEL-2 melanoma
HCT-15 colon = tested on: HCT-15 colon
NCI/ADR-RES ovarian = tested on: NCI/ADR-RES ovarian
OVCAR-5 ovarian = tested on: OVCAR-5 ovarian
MDA-N = tested on: MDA-N
UACC-62 melanoma = tested on: UACC-62 melanoma
T-47D breast = tested on: T-47D breast
RXF 393 renal = tested on: RXF 393 renal
MALME-3M melanoma = tested on: MALME-3M melanoma
NCI-H23 lung = tested on: NCI-H23 lung
KM12 colon = tested on: KM12 colon
HOP-62 NSCLC = tested on: HOP-62 NSCLC
IGROV1 ovarian = tested on: IGROV1 ovarian
SF-268 CNS = tested on: SF-268 CNS
HCC-2998 colon = tested on: HCC-2998 colon
PC-3 prostate = tested on: PC-3 prostate
SF-295 CNS = tested on: SF-295 CNS
HOP-92 NSCLC = tested on: HOP-92 NSCLC
786-0 renal = tested on: 786-0 renal
SR leukemia = tested on: SR leukemia
ACHN renal = tested on: ACHN renal
CAKI-1 renal = tested on: CAKI-1 renal
K-562 leukemia = tested on: K-562 leukemia
HL-60(TB) leukemia = tested on: HL-60(TB) leukemia
SF-539 CNS = tested on: SF-539 CNS
TK-10 renal = tested on: TK-10 renal
HT29 colon = tested on: HT29 colon
SNB-19 CNS = tested on: SNB-19 CNS
DU-145 prostate = tested on: DU-145 prostate
UACC-257 melanoma = tested on: UACC-257 melanoma
NCI-H226 lung = tested on: NCI-H226 lung
MDA-MB-231 breast = tested on: MDA-MB-231 breast
SK-OV-3 ovarian = tested on: SK-OV-3 ovarian
UO-31 renal = tested on: UO-31 renal
M14 melanoma = tested on: M14 melanoma
A549 NSCLC = tested on: A549 NSCLC
CCRF-CEM leukemia = tested on: CCRF-CEM leukemia
SK-MEL-28 melanoma = tested on: SK-MEL-28 melanoma
RPMI-8226 leukemia = tested on: RPMI-8226 leukemia
MDA-MB-435 = tested on: MDA-MB-435
SW-620 colon = tested on: SW-620 colon
MCF7 breast = tested on: MCF7 breast
COLO 205 colon = tested on: COLO 205 colon
MOLT-4 leukemia = tested on: MOLT-4 leukemia
U251 CNS = tested on: U251 CNS
EKVX NSCLC = tested on: EKVX NSCLC
SK-MEL-5 melanoma = tested on: SK-MEL-5 melanoma
NCI-H460 lung = tested on: NCI-H460 lung
OVCAR-4 ovarian = tested on: OVCAR-4 ovarian
LOX IMVI melanoma = tested on: LOX IMVI melanoma
SNB-75 CNS = tested on: SNB-75 CNS
OVCAR-8 ovarian = tested on: OVCAR-8 ovarian

## CC(C)(C)COC1C2(OCCO2)C2CCC1(C)C2(C)C (stereo not given)
OVCAR-3 ovarian
  TGI: 33.3 µM
A498 renal
  TGI: > 100 µM
HS 578T breast
  TGI: 90.1 µM
SK-MEL-2 melanoma
  TGI: 50.2 µM
HCT-15 colon
  TGI: 50 µM
NCI/ADR-RES ovarian
  TGI: > 100 µM
OVCAR-5 ovarian
  TGI: 73.8 µM
MDA-N
  TGI: > 100 µM
UACC-62 melanoma
  TGI: > 100 µM
T-47D breast
  TGI: 68.5 µM
RXF 393 renal
  TGI: 36 µM
MALME-3M melanoma
  TGI: 64 µM
NCI-H23 lung
  TGI: > 100 µM
KM12 colon
  TGI: 42 µM
HOP-62 NSCLC
  TGI: 59.2 µM
IGROV1 ovarian
  TGI: > 100 µM
SF-268 CNS
  TGI: > 100 µM
HCC-2998 colon
  TGI: > 100 µM
PC-3 prostate
  TGI: 54.5 µM
SF-295 CNS
  TGI: 35.2 µM
HOP-92 NSCLC
  TGI: 70.2 µM
786-0 renal
  TGI: 34.5 µM
SR leukemia
  TGI: 40.6 µM
ACHN renal
  TGI: 42.1 µM
CAKI-1 renal
  TGI: > 100 µM
K-562 leukemia
  TGI: 35.7 µM
HL-60(TB) leukemia
  TGI: 44.2 µM
SF-539 CNS
  TGI: > 100 µM
TK-10 renal
  TGI: > 100 µM
HT29 colon
  TGI: 74.4 µM
SNB-19 CNS
  TGI: 41.7 µM
DU-145 prostate
  TGI: > 100 µM
UACC-257 melanoma
  TGI: 70.5 µM
NCI-H226 lung
  TGI: > 100 µM
MDA-MB-231 breast
  TGI: > 100 µM
SK-OV-3 ovarian
  TGI: > 100 µM
UO-31 renal
  TGI: 65.1 µM
M14 melanoma
  TGI: > 100 µM
A549 NSCLC
  TGI: 48 µM
CCRF-CEM leukemia
  TGI: 37.8 µM
SK-MEL-28 melanoma
  TGI: > 100 µM
RPMI-8226 leukemia
  TGI: 41.7 µM
MDA-MB-435
  TGI: > 100 µM
SW-620 colon
  TGI: 37.9 µM
MCF7 breast
  TGI: 37.3 µM
COLO 205 colon
  TGI: 91.1 µM
MOLT-4 leukemia
  TGI: 39.7 µM
U251 CNS
  TGI: 34.3 µM
EKVX NSCLC
  TGI: 79.9 µM
SK-MEL-5 melanoma
  TGI: > 100 µM
NCI-H460 lung
  TGI: > 100 µM
OVCAR-4 ovarian
  TGI: > 100 µM
LOX IMVI melanoma
  TGI: 38 µM
SNB-75 CNS
  TGI: 67.6 µM
OVCAR-8 ovarian
  TGI: 55.9 µM
